Assay: The compound was tested for antagonist activity by selective inhibition of [35S]GTP-gamma-S, binding in Guinea pig caudate stimulated by […] (Opioid receptor delta 1)

SMILES	Ki [nM]
Cc1ccccc1/C=C/CN1CC[C@@](C)(c2cccc(O)c2)[C@@H](C)C1 [RTI-5989-25]	0.355
C[C@H]1CN(C/C=C/c2ccccc2)CC[C@@]1(C)c1cccc(O)c1 [3-[(3R,4R)-3,4-Dimethyl-1-((E)-3-phenyl-allyl)-piperidin-4-yl]-phenol]	1.5
